Paper PMC3705364, “Biochemical and Electrophysiological Characterization of Two Sea Anemone Type 1 Potassium Toxins from a Geographically Distant Population of Bunodosoma caissarum” (Marine Drugs, 2013)
Where a SMILES comes first, the peptide text is derived from it. Bridges are numbered along the chain shown (N, C = ends).

Test system: KV1.1–KV1.6, KV2.1, KV3.1, KV4.2, KV4.3, hERG and Shaker IR
Assay: Electrophysiological screening on 12 cloned KV channel isoforms in X. laevis oocytes
Type: cell-based, rat, human, insect
Protocol: The pharmacological profile of BcsTx-1 and -2 were determined on a wide range of twelve KV channels (rKV1.1, rKV1.2, hKV1.3, rKV1.4, rKV1.5, rKV1.6, rKV2.1, rKV3.1, rKV4.2, rKV4.3, hERG and the insect channel Shaker IR; r: rat and h: human). Channels were expressed in X. laevis oocytes, and their currents were recorded by using two-electrode voltage-clamp technique. BcsTx1 (0.5 µM) inhibited rKv1.1, rKv1.2, rKv1.3, rKv1.6 and Shaker IR channels with 44% ± 2%, 100%, 100%, 88% ± 3% and 64% ± 4%, respectively (Figure 6). […] Type 1 toxins, such as BgK and ShK, have been extensively characterized. […] Some of the other type 1 toxins were indirectly assayed by competitive inhibition of the binding of ^125I-dendrotoxins, allowing the conclusion that they will show activity on KV1.1, KV1.2 and/or KV1.6, since dendrotoxins only block the current of these KV channels. […] Thus, it is worth mentioning that our work represents the first electrophysiological characterization of type 1 sea anemone toxin activity on cloned Shaker IR insect channel.
Stage V–VI of X. laevis oocytes were harvested by partial ovariectomy under anesthesia (3-aminobenzoic acid ethyl ester methanesulfonate salt, 0.5 g/L from Sigma-Aldrich Co., Saint Louis, MO, USA). The oocytes were defolliculated for 2 h by treatment with 2 mg/mL collagenase (Sigma-Aldrich Co., Saint Louis, MO, USA) in Ca^2+ free ND96 solution (in mM: 96 NaCl; 2 KCl; 1 MgCl2; 5 HEPES adjusted pH 7.4). For the expression of KV channels (KV1.1–KV1.6, KV2.1, KV3.1, KV4.2, KV4.3, hERG and the insect channel Shaker IR), the linearized plasmids were transcribed using the T7 or SP6 mMessage-mMachine transcription kit (Ambion, Austin, TX, USA). Oocytes were injected with 50 nL of cRNA at a concentration of 1 ng/nL using a microinjector (Drummond Scientific, Broomall, PA, USA). The oocytes were maintained in a ND96 solution (in mM: 96 NaCl, 2 KCl, 1.8 CaCl2, 2 MgCl2 and 5 HEPES; adjusted pH 7.4), supplemented with 50 µg/mL gentamicin sulfate.
Two-electrode voltage-clamp recordings were performed at room temperature (18–22 °C) using a Geneclamp 500 amplifier (Molecular Devices, Sunnyvale, CA, USA) controlled by a pClamp data acquisition system (Axon Instruments, Union City, CA, USA). Whole-cell currents from oocytes were recorded from 1 to 3 days after injection. Bath solution was the same ND96 solution described above. Voltage and current electrodes were filled with 3 M KCl. Resistances of both electrodes were kept between 0.8 and 1.0 ΩM. The elicited currents were filtered at 500 Hz using a four-pole lowpass Bessel filter. Leak subtraction was performed using a −P/4 protocol. KV1.1–KV1.6 and Shaker IR currents were evoked by 500 ms depolarizations to 0 mV, followed by a 500 ms pulse to −50 mV, from a holding potential of −90 mV. Current traces of hERG channels were elicited by applying a +40 mV prepulse for 2 s, followed by a step to −120 mV for 2 s. KV3.1, KV 4.2 and KV4.3 currents were elicited by 500 ms pulses to +20 mV from a holding potential of −90 mV. To assess the concentration-response relationships, data were fitted with the Hill equation: y = 100/[1 + (EC50/[toxin])h] (1) where y is the amplitude of the toxin-induced effect, EC50 is the toxin concentration at half maximal efficacy, [toxin] is the toxin concentration and h is the Hill coefficient. In order to investigate the current-voltage relationship, current traces were evoked by 10 mV depolarization steps from a holding potential of −90 mV. The activation curves were fitted with a Boltzmann relationship of the form: 1/(1 + e^[−(V − V^1/2)/^S^]) (2) where V1/2 is the voltage for half-maximal activation and s is the slope factor. The activation kinetics were obtained by mono-exponential fits to the raw current traces.

Q: For CC(C)C[C@@H]1NC(=O)[C@H](CCCCN)NC(=O)[C@H](C)NC(=O)[C@H](Cc2c[nH]cn2)NC(=O)[C@H](CCC(N)=O)NC(=O)[C@@H]2CSSC[C@@H]3NC(=O)[C@H](CC(N)=O)NC(=O)[C@H](C)NC(=O)[C@H](CCCNC(=N)N)NC(=O)[C@H](Cc4ccc(O)cc4)NC(=O)[C@H](CCCCN)NC(=O)[C@H](CCC(N)=O)NC(=O)[C@H](CO)NC(=O)[C@H](CC(N)=O)NC(=O)[C@H](CCCCN)NC(=O)[C@H](CSSC[C@H](NC(=O)[C@H]([C@@H](C)O)NC(=O)[C@H](CCCCN)NC(=O)[C@H](C)NC3=O)C(=O)NCC(=O)N3CCC[C@H]3C(=O)N[C@H](C(=O)O)CSSC[C@H](NC(=O)[C@H](C)N)C(=O)N[C@@H](CCCCN)C(=O)N[C@@H](CC(=O)O)C(=O)NCC(=O)N[C@@H](Cc3ccccc3)C(=O)N3CCC[C@H]3C(=O)N[C@@H]([C@@H](C)O)C(=O)N[C@@H](C)C(=O)N[C@@H]([C@@H](C)O)C(=O)N2)NC(=O)[C@H](CC(N)=O)NC(=O)CNC(=O)[C@H](C(C)C)NC1=O [BcsTx2] (H-ACKDGFPTATCQHAKLVGNCKNSQKYRANCAKTCGPC-OH; disulfide 2-37, 11-30, 20-34; C-terminus assumed), which “selectivity among KV channels (in words)” value (3 µM, 12 KV isoforms) is on record?
A: Its value is “selectively blocks Shaker channels subfamily”.

Q: What about the “potency class on KV channels (in words)” value (summary of IC50 values, compared with BgK and type 2 toxins) of the same compound?
A: Its value is “within the nanomolar range”.

Q: What about the “affinity/potency order among KV channels (in words)” value (summary of the electrophysiological characterization) of the same compound?
A: The value was “potently blocked rKv1.6 over hKv1.3, rKv1.1, Shaker IR and rKv1.2”.
